Measurements published in patent US20040146617A1, “Compositions and methods for suppressing cracking and water loss from cherries” (priority 1998, published 2004).

System: cherries
Assay: Cherry firmness after cold storage, pre-harvest application
Type: in vivo
Conditions: after 12 days of cold storage (33° F.); sprayed 2 weeks before harvest; calcium chloride 0.5% w/v, Formulation III 10% (v/v)
Protocol: 1. Effect of Pre-Harvest Application of Matrix III and Calcium on Firmness. The effect of the Formulation III (Matrix III, see EXAMPLE 15) on cherry firmness was determined in the lab with a firmness meter. Firmness is a function of water content. […] After drying, a 10% (v/v) dilution of Formulation III was applied to half of the trees. […] Increased firmness was also observed in a larger orchard trial with ‘Bing’ and ‘Van’ cherries.

[Ca+2].[Cl-].[Cl-] [calcium chloride, Calcium chloride]
firmness: 277.1 mg/mm^2
